pIC50: −log10 of the molar value.
Columns and labels:
[1] = target: T1, human recombinant Bcl-2 protein (Homo sapiens, UniProt P10415); experiment: Fluorescence polarization test for inhibition of BCL-2 binding to FITC-BIM; settings: 5 nM BCL-2, 5 nM FITC-BIM, read-out: FP BCL-2 IC50
T1 construct: purchased Beijing Yigiao Shenzhou Biotechnology Co., Ltd. 10195-HOSE
In short: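 FP competition: compound preincubated 15 min with recombinant human Bcl-2 (diluted to 5 nM), then FITC-BIM (diluted to 5 nM) added for 30 min at room temperature in PBS pH 7.4 with 1 mM DTT. Polarization read at 480/535 nm; IC50 from 8-point 4-fold series fitted by four-parameter equation.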

[2] = target: T2, human recombinant Bcl-XL protein (Homo sapiens, UniProt Q07817); experiment: Fluorescence polarization test for inhibition of BCL-XL binding to FITC-BIM; settings: 10 nM BCL-XL, 10 nM FITC-BIM, read-out: FP BCL-XL IC50
T2 construct: purchased Beijing Yiqiao Shenzhou Biotechnology Co., Ltd. 10455-H0SE
T2 sequence (Q07817 whole entry): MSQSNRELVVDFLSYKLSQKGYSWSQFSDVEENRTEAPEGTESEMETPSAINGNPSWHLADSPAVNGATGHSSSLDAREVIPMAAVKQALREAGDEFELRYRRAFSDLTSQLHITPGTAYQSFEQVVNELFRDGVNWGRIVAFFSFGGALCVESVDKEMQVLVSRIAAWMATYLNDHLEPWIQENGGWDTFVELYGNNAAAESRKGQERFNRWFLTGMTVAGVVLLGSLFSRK
In short: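 Human recombinant Bcl-XL (10 nM diluted stock) preincubated with compound 15 min at RT in PBS pH 7.4, 1 mM DTT, then FITC-BIM peptide (10 nM diluted stock) added for 30 min in dark. FP read at ex 480/em 535 nm; no-protein wells = 100% inhibition; IC50 from 8-point 4-fold dilution curve fit.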

[3] = tested on: RS4;11 cells (acute lymphoblastic leukemia cells); experiment: RS4;11 cell proliferation, CellTilter-Glo luminescence cell viability assay; type: cell-based; settings: Homo sapiens, RS4-11; CTG readout after 48 hours
In short: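 RS4;11 cells plated overnight were exposed for 48 h at 37 °C, 5% CO2 to an 8-point, 4-fold compound dilution series; the vehicle control contained 0.2% DMSO. Viability was read by CellTiter-Glo luminescence. Percent inhibition was referenced to no-cell and DMSO controls, and IC50 came from a four-parameter sigmoidal fit.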

[4] = tested on: patients with relapsed or refractory lymphoid malignancies; settings: cited from earlier work
[5] = tested on: chronic lymphocytic leukemia (CLL) patients; settings: clinical; cited from earlier work
[6] = tested on: relapsed/refractory CLL, MCL, MM; settings: clinical; cited from earlier work

T1 sequence (P10415 whole entry): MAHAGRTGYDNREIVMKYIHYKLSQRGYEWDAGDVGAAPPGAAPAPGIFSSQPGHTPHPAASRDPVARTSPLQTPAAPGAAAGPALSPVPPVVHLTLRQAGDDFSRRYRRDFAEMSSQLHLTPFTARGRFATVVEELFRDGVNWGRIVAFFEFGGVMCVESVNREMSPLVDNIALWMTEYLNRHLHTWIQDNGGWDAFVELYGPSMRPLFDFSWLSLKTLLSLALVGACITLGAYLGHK

Row | Compound | pIC50 [1] | pIC50 [2] | pIC50 [3] | response ([4]; Phase I dose escalation) | targeted toxicity ([4]; thrombocytopenia and severe anemia) | neurotoxicity [5] | toxic side effects [6]
1 | C[C@H]1CN(c2ccc(C(=O)NS(=O)(=O)c3ccc(NC[C@H]4COCCO4)c([N+](=O)[O-])c3)c(Oc3cnc4[nH]ccc4c3)c2)CCN1CC1=C(c2ccc(Cl)cc2)CCC(C)(C)C1 [Example 49, N-((4-((((S)-1,4-dioxan-2-yl)methyl)amino)-3-nitrophenyl)sulfonyl)-2-((1H-pyrrolo[2,3-b]pyridin-5-yl)oxy)-4-((S)-4-((4′-chloro-4,4-dimethyl-3,4,5,6-tetrahydro-[1,1′-biphenyl]-2-yl)methyl)-3-methylpiperazin-1-yl) benzamide] | < 7.00 | < 6.00 | < 6.30 | – | – | – | –
2 | C[C@H]1CN(c2ccc(C(=O)NS(=O)(=O)c3ccc(NCC4CCOCC4)c([N+](=O)[O-])c3)c(Oc3cnc4[nH]ccc4c3)c2)CCN1CC1=C(c2ccc(Cl)cc2)CC(C)(C)CC1 [Example 50, (S)-2-((1H-pyrrolo[2,3-b]pyridin-5-yl)oxy)-4-(4-((4′-chloro-5,5-dimethyl-3,4,5,6-tetrahydro-[1,1′-biphenyl]-2-yl)methyl)-3-methylpiperazin-1-yl)-N-((3-nitro-4--(((tetrahydro-2H-pyran-4-yl)methyl)amino)phenyl)sulfonyl) benzamide] | < 7.00 | < 6.00 | < 6.30 | – | – | – | –
3 | C[C@H]1CN(c2ccc(C(=O)NS(=O)(=O)c3ccc(NC[C@@H]4COCCO4)c([N+](=O)[O-])c3)c(Oc3cnc4[nH]ccc4c3)c2)CCN1CC1=C(c2ccc(Cl)cc2)CC(C)(C)CC1 [Example 51, N-((4-((((R)-1,4-dioxan-2-yl)methyl)amino)-3-nitrophenyl)sulfonyl)-2-((1H-pyrrolo[2,3-b]pyridin-5-yl)oxy)-4-((S)-4-((4′-chloro-5,5-dimethyl-3,4,5,6-tetrahydro-[1,1′-biphenyl]-2-yl)methyl)-3-methylpiperazin-1-yl) benzamide] | < 7.00 | < 6.00 | < 6.30 | – | – | – | –
4 | C[C@@H]1CN(c2ccc(C(=O)NS(=O)(=O)c3ccc(NC[C@@H]4COCCO4)c([N+](=O)[O-])c3)c(Oc3cnc4[nH]ccc4c3)c2)CCN1CC1=C(c2ccc(Cl)cc2)CC(C)(C)CC1 [Example 52, N-((4-((((R)-1,4-dioxan-2-yl)methyl)amino)-3-nitrophenyl)sulfonyl)-2-((1H-pyrrolo [2,3-b]pyridin-5-yl)oxy)-4-((R)-4-((4′-chloro-5,5-dimethyl-3,4,5,6-tetrahydro-[1,1′-biphenyl]-2-yl)methyl)-3-methylpiperazin-1-yl) benzamide] | 8.72 | < 6.00 | 8.29 | – | – | – | –
5 | C[C@H]1CN(c2ccc(C(=O)NS(=O)(=O)c3ccc(NC[C@@H]4COCCO4)c([N+](=O)[O-])c3)c(Oc3cnc4[nH]ccc4c3)c2)CCN1CC1=C(c2ccc(Cl)cc2)CCC(C)(C)C1 [Example 53, N-((4-((((R)-1,4-dioxan-2-yl)methyl)amino)-3-nitrophenyl)sulfonyl)-2-((1H-pyrrolo[2,3-b]pyridin-5-yl)oxy)-4-((S)-4-((4′-chloro-4,4-dimethyl-3,4,5,6-tetrahydro-[1,1′-biphenyl]-2-yl)methyl)-3-methylpiperazin-1-yl)benzamide] | < 7.00 | < 6.00 | < 6.30 | – | – | – | –
6 | C[C@@H]1CN(c2ccc(C(=O)NS(=O)(=O)c3ccc(NC[C@@H]4COCCO4)c([N+](=O)[O-])c3)c(Oc3cnc4[nH]ccc4c3)c2)CCN1CC1=C(c2ccc(Cl)cc2)CCC(C)(C)C1 [Example 54, N-((4-((((R)-1,4-dioxan-2-yl)methyl)amino)-3-nitrophenyl)sulfonyl)-2-((1H-pyrrolo[2,3-b]pyridin-5-yl)oxy)-4-((R)-4-((4′-chloro-4,4-dimethyl-3,4,5,6-tetrahydro-[1,1′-biphenyl]-2-yl)methyl)-3-methylpiperazin-1-yl)benzamide] | 7.96 | < 6.00 | 7.60 | – | – | – | –
7 | C[C@@H]1CN(c2ccc(C(=O)NS(=O)(=O)c3cc(F)c(NC[C@@H]4COCCO4)c([N+](=O)[O-])c3)c(Oc3cnc4[nH]ccc4c3)c2)CCN1CC1=C(c2ccc(Cl)cc2)CC(C)(C)CC1 [Example 55, N-((4-((((R)-1,4-dioxan-2-yl)methyl)amino)-3-fluoro-5-nitrophenyl)sulfonyl)-2-((1H-pyrrolo[2,3-b]pyridin-5-yl)oxy)-4-((R)-4-((4′-chloro-5,5-dimethyl-3,4,5,6-tetrahydro-[1,1′-biphenyl]-2-yl)methyl)-3-methylpiperazin-1-yl)benzamide] | 8.64 | < 6.00 | 8.24 | – | – | – | –
8 | C[C@H]1CN(c2ccc(C(=O)NS(=O)(=O)c3cc(F)c(NC[C@@H]4COCCO4)c([N+](=O)[O-])c3)c(Oc3cnc4[nH]ccc4c3)c2)CCN1CC1=C(c2ccc(Cl)cc2)CC(C)(C)CC1 [Example 56, N-((4-((((R)-1,4-dioxan-2-yl)methyl)amino)-3-fluoro-5-nitrophenyl)sulfonyl)-2-((1H-pyrrolo[2,3-b]pyridin-5-yl)oxy)-4-((S)-4-((4′-chloro-5,5-dimethyl-3,4,5,6-tetrahydro-[1,1′-biphenyl]-2-yl)methyl)-3-methylpiperazin-1-yl) benzamide] | 7.09 | < 6.00 | 6.65 | – | – | – | –
9 | CC1(C)CCC(CN2CCN(c3ccc(C(=O)NS(=O)(=O)c4ccc(NCC5CCOCC5)c([N+](=O)[O-])c4)c(Oc4cnc5[nH]ccc5c4)c3)[C@@H]3CCCC[C@H]32)=C(c2ccc(Cl)cc2)C1 [Example 57] | < 6.30 | < 6.00 | < 6.00 | – | – | – | –
10 | C[C@@H]1CN(c2ccc(C(=O)NS(=O)(=O)c3ccc(NCC4CCOCC4)c([N+](=O)[O-])c3)c(Oc3cnc4[nH]ccc4c3)c2)[C@H](C)CN1CC1=C(c2ccc(Cl)cc2)CC(C)(C)CC1 [Example 58, 2-((1H-Pyrrolo[2,3-b]pyridin-5-yl)oxy)-4-((2R,5R)-4-((4′-chloro-5,5-dimethyl-3,4,5,6-tetrahydro-[1,1′-biphenyl]-2-yl)methyl)-2,5-dimethylpiperazin-1-yl)-N-((3-nitro-4-(((tetrahydro-2H-pyran-4-yl)methyl)amino)phenyl)sulfonyl)benzamide] | 7.52 | < 6.00 | 6.85 | – | – | – | –
11 | C[C@@H]1CN(c2ccc(C(=O)NS(=O)(=O)c3ccc(NC[C@H]4COCCO4)c([N+](=O)[O-])c3)c(Oc3cnc4[nH]ccc4c3)c2)C[C@@H](C)N1CC1=C(c2ccc(Cl)cc2)CC(C)(C)CC1 [Example 59, N-((4-((((S)-1,4-Dioxan-2-yl)menthyl)amino)-3-nitrophenyl)sulfonyl)-2-((1H-pyrrolo[2,3-b]pyridin-5-yl)oxy)-4-((3R,5R)-4-((4′-chloro-5,5-dimethyl-3,4,5,6-tetrahydro-[1,1′-biphenyl]-2-yl)methyl)-3,5-dimethylpiperazin-1-yl)benzamide] | 7.14 | < 6.00 | 6.71 | – | – | – | –
12 | CC1(C)CCC(c2ccc(Cl)cc2)=C(CN2CCN(c3ccc(C(=O)NS(=O)(=O)c4ccc(N[C@H](CCN5CCOCC5)CSc5ccccc5)c(S(=O)(=O)C(F)(F)F)c4)cc3)CC2)C1 [Navitoclax] | – | – | – | 50% | very strong targeted toxicity related to BCL-XL | – | –
13 | COC1=CC(c2cc3ccccc3[nH]2)=N/C1=C\c1[nH]c(C)cc1C [Obatoclax] | – | – | – | – | – | strong neurotoxicity | –
14 | CC1(C)CCC(CN2CCN(c3ccc(C(=O)NS(=O)(=O)c4ccc(NCC5CCOCC5)c([N+](=O)[O-])c4)c(Oc4cnc5[nH]ccc5c4)c3)CC2)=C(c2ccc(Cl)cc2)C1 [Venetoclax, reference compound] | – | – | 8.26 | – | – | – | toxic side effects such as leukopenia and thrombocytopenia, anemia, diarrhea, dizziness, fatigue, susceptibility to infection
